In patent US9957271B2, “Substituted bicyclic aza-heterocycles and analogues as sirtuin modulators” (GlaxoSmithKline, LLC, priority 2012, dated 2018):

What was measured:
SIRT1 [1] = biological target: T1, SIRT1 (Homo sapiens, UniProt Q96EB6); test: TAMRA based mass spectrometry assay of SIRT1 activity; assay type: biochemical; conditions: for TAMRA EC1.5 (μM) / TAMRA EC1.5: concentration giving 150% activation of SIRT1; for Emax: percent maximum fold activation, read-out: TAMRA % Fold Act
T1 sequence (Q96EB6 1-747): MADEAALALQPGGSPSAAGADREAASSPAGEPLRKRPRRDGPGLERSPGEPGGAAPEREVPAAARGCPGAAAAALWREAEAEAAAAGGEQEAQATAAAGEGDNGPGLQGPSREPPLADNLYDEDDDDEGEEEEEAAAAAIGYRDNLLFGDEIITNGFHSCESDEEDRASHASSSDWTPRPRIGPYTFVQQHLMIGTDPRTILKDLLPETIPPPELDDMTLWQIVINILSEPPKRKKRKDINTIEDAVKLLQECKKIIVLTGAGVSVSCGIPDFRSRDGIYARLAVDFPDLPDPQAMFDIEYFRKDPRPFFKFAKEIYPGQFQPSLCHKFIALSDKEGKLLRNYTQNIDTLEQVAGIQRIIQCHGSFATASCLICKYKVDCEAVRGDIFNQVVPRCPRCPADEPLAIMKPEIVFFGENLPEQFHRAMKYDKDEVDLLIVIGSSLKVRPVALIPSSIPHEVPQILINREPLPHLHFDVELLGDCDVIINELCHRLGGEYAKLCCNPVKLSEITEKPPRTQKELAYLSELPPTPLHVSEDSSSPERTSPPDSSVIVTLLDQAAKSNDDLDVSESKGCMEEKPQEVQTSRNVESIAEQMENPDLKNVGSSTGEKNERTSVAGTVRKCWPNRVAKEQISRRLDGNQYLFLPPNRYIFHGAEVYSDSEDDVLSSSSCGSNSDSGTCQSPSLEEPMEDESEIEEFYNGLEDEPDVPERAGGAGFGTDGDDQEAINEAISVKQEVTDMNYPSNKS
Method in brief: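 Deacetylation of a biotinylated, TAMRA-tagged p53-based peptide (0.5 μM) by 10 nM His-tagged SIRT1 with 120 μM βNAD+, 25 °C for 25 min, pH 8 Tris-acetate buffer, across a compound concentration range. Quenched by formic acid and read by mass spec as product peptide or OAADPR; activity relative to DMSO reactions, nicotinamide defining maximal inhibition.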

SIRT1 [2] = biological target: T1, SIRT1; test: Trp mass spectrometry assay of SIRT1 activity; assay type: biochemical; conditions: for Trp EC1.5 (μM) / Trp EC1.5: concentration giving 150% activation of SIRT1; for Emax: percent maximum fold activation, read-out: Trp % Fold Act
Method in brief: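 Activation readout: EC1.5 (concentration raising activity 50% over control) and percent maximum activation, from mass-spec quantitation of OAADPR or deacetylated Trp peptide. Reaction: 0.5 μM acetylated Trp peptide, 120 μM βNAD+, 10 nM bacterially expressed N-His SIRT1, pH 7.5 HEPES buffer with […], 25 min at 25° C.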

| Compound | TAMRA EC1.5 (μM) (SIRT1 [1]; TAMRA assay) | Emax (SIRT1 [1]; TAMRA assay) [%] | Trp EC1.5 (μM) (SIRT1 [2]; Trp assay) | Emax (SIRT1 [2]; Trp assay) [%] | TAMRA EC1.5 (SIRT1 [1]; TAMRA peptide substrate) | Emax (SIRT1 [1]; TAMRA peptide substrate) [%] | Trp EC1.5 (SIRT1 [2]; Trp peptide substrate) | Emax (SIRT1 [2]; Trp peptide substrate) [%] |
| --- | --- | --- | --- | --- | --- | --- | --- | --- |
| CCNc1cccc(NC(=O)c2cnc3ccc(-c4ccccc4Cl)nn23)n1 [Compound 326] | A (EC1.5<1 μM) | ≥ 350 | A (EC1.5<1 μM) | < 350 | – | – | – | – |
| CCNc1cccc(NC(=O)c2cnc3ccc(-c4ccccc4F)nn23)n1 [Compound 327] | A (EC1.5<1 μM) | ≥ 350 | A (EC1.5<1 μM) | < 350 | – | – | – | – |
| N#Cc1ccccc1-c1ccc2ncc(NC(=O)c3cnccn3)n2n1 [Compound 329] | B (EC1.5 1-25 μM) | < 350 | C (EC1.5>25 μM) | < 350 | – | – | – | – |
| N#Cc1ccccc1-c1ccc2ncc(NC(=O)c3cscn3)n2n1 [Compound 332] | B (EC1.5 1-25 μM) | < 350 | C (EC1.5>25 μM) | < 350 | – | – | – | – |
| N#Cc1ccccc1-c1ccc2ncc(NC(=O)c3nccs3)n2n1 [Compound 335] | B (EC1.5 1-25 μM) | < 350 | B (EC1.5 1-25 μM) | < 350 | – | – | – | – |
| N#Cc1ccccc1-c1ccc2ncc(NC(=O)c3cccc(N4CCC4)n3)n2n1 [Compound 338] | A (EC1.5<1 μM) | ≥ 350 | A (EC1.5<1 μM) | < 350 | – | – | – | – |
| N#Cc1ccccc1-c1ccc2ncc(NC(=O)c3cccc(OCC(O)CO)n3)n2n1 (stereo not shown) [Compound 339] | A (EC1.5<1 μM) | ≥ 350 | A (EC1.5<1 μM) | < 350 | – | – | – | – |
| CC1(COc2ccnc(NC(=O)c3cnc4ccc(-c5ccccc5C(F)(F)F)nn34)n2)COC1 [Compound 340] | A (EC1.5<1 μM) | ≥ 350 | A (EC1.5<1 μM) | ≥ 350 | – | – | – | – |
| Cc1nc2ccc(-c3ccccc3Cl)nn2c1NC(=O)c1ccccn1 [Compound 346] | B (EC1.5 1-25 μM) | < 350 | C (EC1.5>25 μM) | < 350 | – | – | – | – |
| Cc1nc2ccc(-c3ccccc3Cl)nn2c1NC(=O)c1ccncn1 [Compound 348] | C (EC1.5>25 μM) | < 350 | C (EC1.5>25 μM) | < 350 | – | – | – | – |
| Cc1nc(C(=O)Nc2c(C)nc3ccc(-c4ccccc4Cl)nn23)cs1 [Compound 351] | B (EC1.5 1-25 μM) | < 350 | C (EC1.5>25 μM) | < 350 | – | – | – | – |
| Cc1nc(C(=O)Nc2c(C)nc3ccc(-c4ccccc4Cl)nn23)c(C)s1 [Compound 352] | B (EC1.5 1-25 μM) | < 350 | C (EC1.5>25 μM) | < 350 | – | – | – | – |
| Cc1cnc(C(=O)Nc2c(C)nc3ccc(-c4ccccc4Cl)nn23)s1 [Compound 354] | B (EC1.5 1-25 μM) | < 350 | C (EC1.5>25 μM) | < 350 | – | – | – | – |
| Cc1nc2ccc(-c3ccccc3Cl)nn2c1NC(=O)c1cccc(OCC(O)CO)n1 (stereo not shown) [Compound 357] | C (EC1.5>25 μM) | < 350 | C (EC1.5>25 μM) | < 350 | – | – | – | – |
| O=C(Nc1ccncn1)c1cnc2ccc(-c3ccccc3OC(F)(F)F)nn12 [Compound 358] | A (EC1.5<1 μM) | ≥ 350 | B (EC1.5 1-25 μM) | ≥ 350 | – | – | – | – |
| O=C(Nc1ccc(F)cn1)c1cnc2ccc(-c3ccccc3OC(F)(F)F)nn12 [Compound 360] | B (EC1.5 1-25 μM) | < 350 | A (EC1.5<1 μM) | < 350 | – | – | – | – |
| Cc1cc(NC(=O)c2cnc3ccc(-c4ccccc4OC(F)(F)F)nn23)ccn1 [Compound 364] | A (EC1.5<1 μM) | ≥ 350 | A (EC1.5<1 μM) | ≥ 350 | – | – | – | – |
| Cc1cccc(NC(=O)c2cnc3ccc(-c4ccccc4OCC(O)CO)nn23)n1 (stereo not shown) [Compound 369] | A (EC1.5<1 μM) | ≥ 350 | B (EC1.5 1-25 μM) | ≥ 350 | – | – | – | – |
| O=C(Nc1cccc(N2CCOCC2)n1)c1cnc2ccc(-c3cccc(OCC(O)CO)c3)nn12 (stereo not shown) [Compound 372] | A (EC1.5<1 μM) | ≥ 350 | A (EC1.5<1 μM) | < 350 | – | – | – | – |

Other lines, results leading:

| TAMRA EC1.5 (μM) (SIRT1 [1]; TAMRA assay) | Emax (SIRT1 [1]; TAMRA assay) [%] | Trp EC1.5 (μM) (SIRT1 [2]; Trp assay) | Emax (SIRT1 [2]; Trp assay) [%] | TAMRA EC1.5 (SIRT1 [1]; TAMRA peptide substrate) | Emax (SIRT1 [1]; TAMRA peptide substrate) [%] | Trp EC1.5 (SIRT1 [2]; Trp peptide substrate) | Emax (SIRT1 [2]; Trp peptide substrate) [%] | Compound |
| --- | --- | --- | --- | --- | --- | --- | --- | --- |
| B (EC1.5 1-25 μM) | ≥ 350 | C (EC1.5>25 μM) | < 350 | – | – | – | – | Cc1nc2ccc(-c3ccccc3C(F)(F)F)nn2c1NC(=O)c1ccccn1 [Compound 375] |
| B (EC1.5 1-25 μM) | < 350 | C (EC1.5>25 μM) | < 350 | – | – | – | – | Cc1nc2ccc(-c3ccccc3C(F)(F)F)nn2c1NC(=O)c1ccncn1 [Compound 377] |
| B (EC1.5 1-25 μM) | ≥ 350 | C (EC1.5>25 μM) | < 350 | – | – | – | – | Cc1nc2ccc(-c3ccccc3C(F)(F)F)nn2c1NC(=O)c1nccs1 [Compound 380] |
| B (EC1.5 1-25 μM) | ≥ 350 | C (EC1.5>25 μM) | < 350 | – | – | – | – | Cc1cnc(C(=O)Nc2c(C)nc3ccc(-c4ccccc4C(F)(F)F)nn23)s1 [Compound 381] |
| A (EC1.5<1 μM) | ≥ 350 | B (EC1.5 1-25 μM) | ≥ 350 | – | – | – | – | Cc1nc2ccc(-c3ccccc3C(F)(F)F)nn2c1NC(=O)c1cccc(N2CCC2)n1 [Compound 383] |
| A (EC1.5<1 μM) | ≥ 350 | B (EC1.5 1-25 μM) | < 350 | – | – | – | – | Cc1c(-c2ccccc2Cl)nn2c(NC(=O)c3cccc(N4CCCC4)n3)cnc2c1C [Compound 386] |
| A (EC1.5<1 μM) | ≥ 350 | A (EC1.5<1 μM) | ≥ 350 | – | – | – | – | Cc1c(-c2ccccc2C(F)(F)F)nn2c(C(=O)Nc3cccc(OC[C@H](O)CO)n3)cnc2c1C [Compound 387, (R)-N-(6-(2,3-dihydroxypropoxy)pyridin-2-yl)-7,8-dimethyl-6-(2-(trifluoromethyl)phenyl)imidazo[1,2-b]pyridazine-3-carboxamide] |
| A (EC1.5<1 μM) | ≥ 350 | B (EC1.5 1-25 μM) | < 350 | – | – | – | – | Cc1nccc(C(=O)Nc2cnc3ccc(-c4ccccc4C(F)(F)F)nn23)n1 [Compound 389] |
| C (EC1.5>25 μM) | < 350 | C (EC1.5>25 μM) | < 350 | – | – | – | – | Cc1ncccc1C(=O)Nc1cnc2ccc(-c3ccccc3C(F)(F)F)nn12 [Compound 392] |
| B (EC1.5 1-25 μM) | < 350 | C (EC1.5>25 μM) | < 350 | – | – | – | – | Cc1ccc(C(=O)Nc2cnc3ccc(-c4ccccc4C(F)(F)F)nn23)cn1 [Compound 393] |
| A (EC1.5<1 μM) | ≥ 350 | A (EC1.5<1 μM) | ≥ 350 | – | – | – | – | O=C(Nc1cccnn1)c1cnc2ccc(-c3ccccc3OC(F)(F)F)nn12 [Compound 395] |
| – | – | – | – | A (EC1.5<1 μM) | ≥ 350 | B (EC1.5 1-25 μM) | < 350 | Cc1cc(NC(=O)c2cnc3ccc(-c4ccccc4OC(F)(F)F)nn23)nc(C)n1 [Compound 398] |
| – | – | – | – | A (EC1.5<1 μM) | ≥ 350 | A (EC1.5<1 μM) | ≥ 350 | Cc1ccnc(NC(=O)c2cnc3ccc(-c4ccccc4OC(F)(F)F)nn23)n1 [Compound 401] |
| – | – | – | – | A (EC1.5<1 μM) | ≥ 350 | A (EC1.5<1 μM) | ≥ 350 | Cc1cc(NC(=O)c2cnc3ccc(-c4ccccc4C(F)(F)F)nn23)cc(OCC(O)CO)n1 (stereo not shown) [Compound 406] |
| – | – | – | – | A (EC1.5<1 μM) | ≥ 350 | B (EC1.5 1-25 μM) | ≥ 350 | Cc1cc(-c2ccccc2C(F)(F)F)nn2c(NC(=O)c3ccccn3)cnc12 [Compound 407, N-(8-methyl-6-(2-(trifluoromethyl)phenyl)imidazo[1,2-b]pyridazin-3-yl)picolinamide] |
